Measurements taken from US20100113276A1, “USE OF N2-PHENYLAMIDINES AS HERBICIDES” (BAYER CROPSCIENCE AG, priority 2007, published 2010).

Test: log P by HPLC on reversed-phase column (C18), EEC Directive 79/831 Annex V.A8
Assay type: physicochemical
Details: C18, 40° C.; for log p H3PO4: 0.1% aqueous phosphoric acid / acetonitrile; for log p HCO2H: aqueous formic acid / acetonitrile
Procedure: The log P data were determined in accordance with the EEC Directive 79/831 Annex V.A8 by HPLC (High Performance Liquid Chromatography) on a reversed-phase column (C18) using the following methods: […]
Calibration was carried out with the help of unbranched alkan-2-ones (consisting of 3 to 13 or 16 carbon atoms) with known logP values (determination of the logP values via the retention times by means of linear interpolation between two subsequent alkanones).

Cc1cc(N=CN2CCCCC2)c(Cl)cc1Oc1ccc(C(C)C)cc1 [compound 891]
log p H3PO4: 2.82
log p HCO2H: 2.64
log p neutral: 6.21

CCN(C)C=Nc1cc(Cl)c(Oc2ccc(Cl)c(C(C)(C)C)c2)cc1C [compound 388]
log p HCO2H: 3.02
log p neutral: 6.70

CCN(C)C=Nc1cc(C)c(Oc2ccc(Cl)c(C(F)(F)F)c2)cc1Cl [compound 893]
log p H3PO4: 2.51
log p HCO2H: 2.44
log p neutral: 5.49

Cc1cc(Oc2ccc(Cl)c(C(C)C)c2)c(C)cc1N=CN(C)C(C)C [compound 401]
log p neutral: 7.36

CCN(C)C=Nc1cc(C(F)(F)F)c(-c2ccc(C(C)(C)C)cc2)cc1Cl [compound 962]
log p acidic: 2.74
log p neutral: 6.15

Cc1cc(N=CN(C)C(C)C)c(Cl)cc1Oc1ccc(Cl)c(C(F)(F)F)c1 [compound 894]
log p H3PO4: 1.73
log p HCO2H: 2.55

CCN(C)C=Nc1cc(C)c(CCc2ccc(C(F)(F)F)cc2)cc1C [compound 250]
log p HCO2H: 2.45

CCN(C)C=Nc1cc(C(F)(F)F)c(Oc2ccc(Cl)c(C(F)(F)F)c2)cc1Cl [compound 948]
log p H3PO4: 2.87
log p HCO2H: 2.98
log p neutral: 5.74

Cc1cc(Oc2cc(Cl)cc(C(F)(F)F)c2)c(Cl)cc1N=CN1CCCCC1 [compound 568]
log p acidic: 2.86

Cc1cc(N=CN(C)C)c(Cl)cc1Oc1ccc(Cl)c(C(C)(C)C)c1 [compound 902]
log p H3PO4: 1.57
log p HCO2H: 2.65
log p neutral: 6.11

CCN(C)C=Nc1cc(C)c(Oc2nc(C(C)(C)C)c(Cl)s2)cc1C [compound 559]
log p acidic: 2.76

CCCN(C)C=Nc1cc(Cl)c(Oc2ccc(Br)c(C(C)C)c2)cc1C [compound 590]
log p acidic: 2.93
log p neutral: 7.01

CCCN(C)C=Nc1cc(Cl)c(Oc2ccc(Cl)c(CC)c2)cc1C [compound 584]
log p HCO2H: 2.84
log p neutral: 6.54

CC(C)(C)c1cccc(Oc2cc(Cl)c(N=CN3CCCCC3)cc2Cl)c1 [compound 809]
log p H3PO4: 2.81
log p HCO2H: 3.04
log p neutral: 6.41

CCN(C)C=Nc1cc(C)c(-c2ccc(C(C)(C)C)cc2)cc1C [compound 446]
log p acidic: 2.69
log p neutral: 6.30

CCN(C)C=Nc1cc(C)c(Oc2ccc(C(C)(C)C)cc2)cc1Cl [compound 884]
log p H3PO4: 2.87
log p HCO2H: 2.69
log p neutral: 5.86

CC(C)N(C)C=Nc1cc(Cl)c(Oc2ccccc2)cc1Cl [compound 802]
log p H3PO4: 2
log p HCO2H: 2.08
log p neutral: 4.84

CCN(C)C=Nc1cc(C)c(Oc2cccc(C(C)(CC)OC)c2)cc1C (centres unmarked) [compound 502]
log p acidic: 2.30

CCN(C)C=Nc1cc(F)c(-c2ccc(OC(C)(C)C)cc2)cc1C [compound 673]
log p acidic: 2.23

CCN(C)C=Nc1cc(C)c(Oc2ccc3ccccc3c2)cc1C [compound 538]
log p acidic: 2.38

CCc1cc(Oc2cc(C)c(N=CN3CCCCC3)cc2Cl)ccc1Cl [compound 587]
log p HCO2H: 2.74
log p neutral: 6.73

CCN(C)C=Nc1cc(Cl)c(Oc2nc(C3(Cl)CC3)ns2)cc1C [compound 612]
log p acidic: 1.72

CCCN(C)C=Nc1cc(Cl)c(Oc2ccc(Cl)c(C(C)(C)C)c2)cc1C [compound 578]
log p acidic: 3.06

Cc1cc(Oc2ccc(F)c(C(F)(F)F)c2)c(C)cc1N=CN(C)C [compound 365]
log p HCO2H: 2.37

Cc1cc(Oc2cc(Cl)cc(Br)c2)c(C)cc1N=CN(C)C(C)C [compound 328]
log p acidic: 2.70
log p neutral: 6.81

CCN(C)C=Nc1cc(C)c(-c2ccc(Cl)c(C)c2)cc1C [compound 398]
log p acidic: 2.27
log p neutral: 5.59

CCN(C)C=Nc1cc(C)c(Oc2cccc(-c3cccnc3Cl)c2)cc1C [compound 130]
log p acidic: 2.05
log p neutral: 4.53

Cc1cc(-c2ccc(C(C)(C)C)cc2)c(C)cc1N=CN(C)C [compound 445]
log p acidic: 2.71
log p neutral: 5.74

Cc1cc(N=CN(C)C(C)C)c(Cl)cc1Oc1ccc(Cl)c(C(C)C)c1 [compound 899]
log p H3PO4: 3.07
log p HCO2H: 2.92
log p neutral: 6.45

CCN(C)C=Nc1cc(C)c(OCc2sc(Cl)nc2Cl)cc1C [compound 555]
log p H3PO4: 1.99

CCN(C)C=Nc1cc(C)c(Oc2nc(C(C)(C)C)ns2)cc1Cl [compound 916]
log p acidic: 2.1
log p neutral: 4.92

CCN(C)C=Nc1cc(C(F)(F)F)c(Oc2ccc(Cl)c(C(C)(C)C)c2)cc1Cl [compound 944]
log p H3PO4: 3.35
log p HCO2H: 3.39
log p neutral: 6.63

Clc1cc(Oc2ccccc2)c(Cl)cc1N=CN1CCCCC1 [compound 804]
log p H3PO4: 2.03
log p HCO2H: 2.12
log p neutral: 5.09

CCN(C)C=Nc1cc(C)c(Oc2cccc(C(C)(C)C)c2)cc1Cl [compound 870]
log p H3PO4: 2.76
log p HCO2H: 2.55
log p neutral: 5.79

CCCN(C)C=Nc1cc(Cl)c(Oc2cc(Cl)cc(C(F)(F)F)c2)cc1C [compound 566]
log p acidic: 2.83

CCN(C)C=Nc1cc(C)c(Oc2cccc(Oc3ccccc3)c2)cc1Cl [compound 880]
log p H3PO4: 2.63
log p HCO2H: 2.47
log p neutral: 5.44

CCN(C)C=Nc1cc(C)c(Oc2ccc(Cl)c(C(F)(F)F)c2)cc1C [compound 34]
log p acidic: 2.38

Cc1cc(Oc2ccc(Cl)c(C(C)C)c2)c(Cl)cc1N=CN(C)C1CC1 [compound 402]
log p HCO2H: 2.96
log p neutral: 6.60

CCCN(C)C=Nc1cc(Cl)c(Oc2cc(C(C)(C)C)nn2C)cc1C [compound 597]
log p acidic: 1.90
log p neutral: 5.09

CCc1cc(Oc2cc(C)c(N=CN(C)CC)cc2Cl)ccc1Cl [compound 583]
log p HCO2H: 2.78
log p neutral: 6.09

CCN(C)C=Nc1cc(C)c(C=Cc2ccc(OC)cc2)cc1C [compound 286]
log p HCO2H: 2.06

Cc1cc(Oc2cccc(C(C)(C)C)c2)c(C)cc1N=CN(C)C(C)C [compound 440]
log p acidic: 2.96
log p HCO2H: 2.72

CCN(C)C=Nc1cc(C)c(C=Cc2ccccc2C)cc1C [compound 270]
log p HCO2H: 2.21

CCN(C)C=Nc1cc(C)c(Oc2ccc(C#N)c(C(F)(F)F)c2)cc1C [compound 226]
log p acidic: 1.68

CCN(C)C=Nc1cc(F)c(-c2nnc(C3CC3)s2)cc1C [compound 681]
log p acidic: 1.32

Cc1cc(Oc2cc(C(C)(C)C)nn2C)c(Cl)cc1N=CN1CCCCC1 [compound 600]
log p acidic: 1.90
log p neutral: 5.34

CCN(C)C=Nc1cc(Cl)c(Oc2nc(C(C)(C)C)ns2)cc1Cl [compound 825]
log p H3PO4: 2.34
log p HCO2H: 2.56
log p neutral: 5.25

CCN(C)C=Nc1cc(Cl)c(Oc2cc(C(C)(C)C)nn2C)cc1C [compound 596]
log p acidic: 1.84
log p HCO2H: 1.84
log p neutral: 4.41

CCN(C)C=Nc1cc(Cl)c(Oc2ccc(Br)c(C(C)C)c2)cc1C [compound 589]
log p HCO2H: 2.84
log p neutral: 6.58

Cc1cc(N=CN2CCCCC2)c(Cl)cc1Oc1ccc(Cl)c(C(C)C)c1 [compound 901]
log p H3PO4: 3.12
log p HCO2H: 3
log p neutral: 6.72

Cc1cc(N=CN(C)C(C)C)c(Cl)cc1Oc1ccc(C(C)C)cc1 [compound 889]
log p H3PO4: 2.87
log p HCO2H: 2.62
log p neutral: 5.91

CCCN(C)C=Nc1cc(Cl)c(Oc2ccc(Cl)c(C(C)C)c2)cc1C [compound 571]
log p HCO2H: 3.03
log p neutral: 6.79

Cc1cc(Oc2cc(Cl)cc(C(F)(F)F)c2)c(Cl)cc1N=CN1CCCC1 [compound 567]
log p acidic: 2.66

CCN(C)C=Nc1cc(Br)c(Oc2ccc(Cl)c(C(C)(C)C)c2)cc1C [compound 697]
log p acidic: 2.67

Cc1cc(Oc2ccc(Cl)c(C(F)(F)F)c2)c(C)cc1N=CN1CCCCC1 [compound 36]
log p HCO2H: 2.59
log p neutral: 6.36

CC(C)(C)c1cc(Oc2cc(Cl)c(N=CN3CCCCC3)cc2C(F)(F)F)ccc1Cl [compound 946]
log p H3PO4: 3.61
log p HCO2H: 3.68
log p neutral: 7.1

CCN(C)C=Nc1cc(C)c(CCc2ccccc2F)cc1C [compound 345]
log p HCO2H: 2.45

CCN(C)C=Nc1cc(C)c(Oc2ccc(Cl)c(C(C)(C)C)c2)cc1Cl [compound 903]
log p H3PO4: 2.98
log p HCO2H: 2.8
log p neutral: 6.54

CCN(C)C=Nc1cc(C)c(Oc2cc(F)cc(C(F)(F)F)c2)cc1C [compound 371]
log p acidic: 2.31
log p neutral: 5.54

FC(F)(F)c1cc(Oc2cc(Cl)c(N=CN3CCCCC3)cc2Cl)ccc1Cl [compound 819]
log p H3PO4: 2.85
log p HCO2H: 3
log p neutral: 6.12

CCN(C)C=Nc1cc(Cl)c(Oc2ccc(Cl)c(C(C)C)c2)cc1C [compound 570]
log p HCO2H: 2.95
log p neutral: 6.37

CCN(C)C=Nc1cc(Cl)c(Oc2cc(Cl)cc(C(F)(F)F)c2)cc1C [compound 565]
log p acidic: 2.64

CCN(C)C=Nc1cc(C)c(Oc2cccc(Oc3ccccc3)c2)cc1C [compound 290]
log p acidic: 2.51

Cc1cc(Oc2nc(C(C)(C)C)ns2)c(Cl)cc1N=CN1CCCCC1 [compound 610]
log p acidic: 2.21
log p HCO2H: 2.21

CC(C)(C)c1cc(Oc2cc(F)c(N=CN3CCCCC3)cc2F)ccc1Cl [compound 836]
log p acidic: 2.71
log p neutral: 5.74

CCN(C)C=Nc1cc(Cl)c(Oc2ncnc(Oc3ccc(Cl)cc3)c2F)cc1C [compound 620]
log p HCO2H: 2.20
